Source: PubChem BioAssay AID743486 (Broad Institute, 2014)
The source made the active and inactive calls. How the calls were made is not given here.

These compounds were tested on Mycobacterium tuberculosis starved, CFU imaging (assay: M. tuberculosis CFU reduction, CFU imaging, dry powder, dose response (AID 743486)).
For `Cn1c(NC(=O)c2ccccc2)nc2c3ccncc3ccc21`, the AC90 was less than 64 µM.
In the case of `Cn1c(NC(=O)c2ccccc2)nc2c3ncccc3ccc21`, the AC90 is reported as > 64 µM (inactive).
Compound `Cn1c(NC(=O)c2ccccc2)nc2c3cnccc3ccc21` has an AC90 of less than 32 µM.
`Cn1c(NC(=O)c2ccccc2)nc2c3nccnc3ccc21` was tested, and the AC90 was > 64 µM (inactive).
